ChEMBL document CHEMBL3352433, “Class II but Not Second Class-Prospects for the Development of Class II PI3K Inhibitors” (ACS Med Chem Lett, 2015)
pIC50: −log10 of the molar value.

What was measured:
[1] = molecular target: Phosphatidylinositol 4-phosphate 3-kinase C2 domain-containing subunit alpha (Homo sapiens, UniProt O00443); assay: Inhibition of human PI3KC2alpha by non-radiometric ADP-Glo assay
[2] = molecular target: Phosphatidylinositol 4-phosphate 3-kinase C2 domain-containing subunit beta (Homo sapiens, UniProt O00750); assay: Inhibition of human PI3KC2beta by non-radiometric ADP-Glo assay
[3] = molecular target: DNA-dependent protein kinase catalytic subunit (Homo sapiens, UniProt P78527); assay: Inhibition of human DNA-PK by non-radiometric ADP-Glo assay
[4] = Inhibition of human class 4 PI3K by non-radiometric ADP-Glo assay
[5] = Inhibition of human class 1 PI3K by non-radiometric ADP-Glo assay
[6] = molecular target: Serine/threonine-protein kinase mTOR (Homo sapiens, UniProt P42345); assay: Inhibition of human mTOR by non-radiometric ADP-Glo assay

DNA-dependent protein kinase catalytic subunit, sequence (P78527 whole entry): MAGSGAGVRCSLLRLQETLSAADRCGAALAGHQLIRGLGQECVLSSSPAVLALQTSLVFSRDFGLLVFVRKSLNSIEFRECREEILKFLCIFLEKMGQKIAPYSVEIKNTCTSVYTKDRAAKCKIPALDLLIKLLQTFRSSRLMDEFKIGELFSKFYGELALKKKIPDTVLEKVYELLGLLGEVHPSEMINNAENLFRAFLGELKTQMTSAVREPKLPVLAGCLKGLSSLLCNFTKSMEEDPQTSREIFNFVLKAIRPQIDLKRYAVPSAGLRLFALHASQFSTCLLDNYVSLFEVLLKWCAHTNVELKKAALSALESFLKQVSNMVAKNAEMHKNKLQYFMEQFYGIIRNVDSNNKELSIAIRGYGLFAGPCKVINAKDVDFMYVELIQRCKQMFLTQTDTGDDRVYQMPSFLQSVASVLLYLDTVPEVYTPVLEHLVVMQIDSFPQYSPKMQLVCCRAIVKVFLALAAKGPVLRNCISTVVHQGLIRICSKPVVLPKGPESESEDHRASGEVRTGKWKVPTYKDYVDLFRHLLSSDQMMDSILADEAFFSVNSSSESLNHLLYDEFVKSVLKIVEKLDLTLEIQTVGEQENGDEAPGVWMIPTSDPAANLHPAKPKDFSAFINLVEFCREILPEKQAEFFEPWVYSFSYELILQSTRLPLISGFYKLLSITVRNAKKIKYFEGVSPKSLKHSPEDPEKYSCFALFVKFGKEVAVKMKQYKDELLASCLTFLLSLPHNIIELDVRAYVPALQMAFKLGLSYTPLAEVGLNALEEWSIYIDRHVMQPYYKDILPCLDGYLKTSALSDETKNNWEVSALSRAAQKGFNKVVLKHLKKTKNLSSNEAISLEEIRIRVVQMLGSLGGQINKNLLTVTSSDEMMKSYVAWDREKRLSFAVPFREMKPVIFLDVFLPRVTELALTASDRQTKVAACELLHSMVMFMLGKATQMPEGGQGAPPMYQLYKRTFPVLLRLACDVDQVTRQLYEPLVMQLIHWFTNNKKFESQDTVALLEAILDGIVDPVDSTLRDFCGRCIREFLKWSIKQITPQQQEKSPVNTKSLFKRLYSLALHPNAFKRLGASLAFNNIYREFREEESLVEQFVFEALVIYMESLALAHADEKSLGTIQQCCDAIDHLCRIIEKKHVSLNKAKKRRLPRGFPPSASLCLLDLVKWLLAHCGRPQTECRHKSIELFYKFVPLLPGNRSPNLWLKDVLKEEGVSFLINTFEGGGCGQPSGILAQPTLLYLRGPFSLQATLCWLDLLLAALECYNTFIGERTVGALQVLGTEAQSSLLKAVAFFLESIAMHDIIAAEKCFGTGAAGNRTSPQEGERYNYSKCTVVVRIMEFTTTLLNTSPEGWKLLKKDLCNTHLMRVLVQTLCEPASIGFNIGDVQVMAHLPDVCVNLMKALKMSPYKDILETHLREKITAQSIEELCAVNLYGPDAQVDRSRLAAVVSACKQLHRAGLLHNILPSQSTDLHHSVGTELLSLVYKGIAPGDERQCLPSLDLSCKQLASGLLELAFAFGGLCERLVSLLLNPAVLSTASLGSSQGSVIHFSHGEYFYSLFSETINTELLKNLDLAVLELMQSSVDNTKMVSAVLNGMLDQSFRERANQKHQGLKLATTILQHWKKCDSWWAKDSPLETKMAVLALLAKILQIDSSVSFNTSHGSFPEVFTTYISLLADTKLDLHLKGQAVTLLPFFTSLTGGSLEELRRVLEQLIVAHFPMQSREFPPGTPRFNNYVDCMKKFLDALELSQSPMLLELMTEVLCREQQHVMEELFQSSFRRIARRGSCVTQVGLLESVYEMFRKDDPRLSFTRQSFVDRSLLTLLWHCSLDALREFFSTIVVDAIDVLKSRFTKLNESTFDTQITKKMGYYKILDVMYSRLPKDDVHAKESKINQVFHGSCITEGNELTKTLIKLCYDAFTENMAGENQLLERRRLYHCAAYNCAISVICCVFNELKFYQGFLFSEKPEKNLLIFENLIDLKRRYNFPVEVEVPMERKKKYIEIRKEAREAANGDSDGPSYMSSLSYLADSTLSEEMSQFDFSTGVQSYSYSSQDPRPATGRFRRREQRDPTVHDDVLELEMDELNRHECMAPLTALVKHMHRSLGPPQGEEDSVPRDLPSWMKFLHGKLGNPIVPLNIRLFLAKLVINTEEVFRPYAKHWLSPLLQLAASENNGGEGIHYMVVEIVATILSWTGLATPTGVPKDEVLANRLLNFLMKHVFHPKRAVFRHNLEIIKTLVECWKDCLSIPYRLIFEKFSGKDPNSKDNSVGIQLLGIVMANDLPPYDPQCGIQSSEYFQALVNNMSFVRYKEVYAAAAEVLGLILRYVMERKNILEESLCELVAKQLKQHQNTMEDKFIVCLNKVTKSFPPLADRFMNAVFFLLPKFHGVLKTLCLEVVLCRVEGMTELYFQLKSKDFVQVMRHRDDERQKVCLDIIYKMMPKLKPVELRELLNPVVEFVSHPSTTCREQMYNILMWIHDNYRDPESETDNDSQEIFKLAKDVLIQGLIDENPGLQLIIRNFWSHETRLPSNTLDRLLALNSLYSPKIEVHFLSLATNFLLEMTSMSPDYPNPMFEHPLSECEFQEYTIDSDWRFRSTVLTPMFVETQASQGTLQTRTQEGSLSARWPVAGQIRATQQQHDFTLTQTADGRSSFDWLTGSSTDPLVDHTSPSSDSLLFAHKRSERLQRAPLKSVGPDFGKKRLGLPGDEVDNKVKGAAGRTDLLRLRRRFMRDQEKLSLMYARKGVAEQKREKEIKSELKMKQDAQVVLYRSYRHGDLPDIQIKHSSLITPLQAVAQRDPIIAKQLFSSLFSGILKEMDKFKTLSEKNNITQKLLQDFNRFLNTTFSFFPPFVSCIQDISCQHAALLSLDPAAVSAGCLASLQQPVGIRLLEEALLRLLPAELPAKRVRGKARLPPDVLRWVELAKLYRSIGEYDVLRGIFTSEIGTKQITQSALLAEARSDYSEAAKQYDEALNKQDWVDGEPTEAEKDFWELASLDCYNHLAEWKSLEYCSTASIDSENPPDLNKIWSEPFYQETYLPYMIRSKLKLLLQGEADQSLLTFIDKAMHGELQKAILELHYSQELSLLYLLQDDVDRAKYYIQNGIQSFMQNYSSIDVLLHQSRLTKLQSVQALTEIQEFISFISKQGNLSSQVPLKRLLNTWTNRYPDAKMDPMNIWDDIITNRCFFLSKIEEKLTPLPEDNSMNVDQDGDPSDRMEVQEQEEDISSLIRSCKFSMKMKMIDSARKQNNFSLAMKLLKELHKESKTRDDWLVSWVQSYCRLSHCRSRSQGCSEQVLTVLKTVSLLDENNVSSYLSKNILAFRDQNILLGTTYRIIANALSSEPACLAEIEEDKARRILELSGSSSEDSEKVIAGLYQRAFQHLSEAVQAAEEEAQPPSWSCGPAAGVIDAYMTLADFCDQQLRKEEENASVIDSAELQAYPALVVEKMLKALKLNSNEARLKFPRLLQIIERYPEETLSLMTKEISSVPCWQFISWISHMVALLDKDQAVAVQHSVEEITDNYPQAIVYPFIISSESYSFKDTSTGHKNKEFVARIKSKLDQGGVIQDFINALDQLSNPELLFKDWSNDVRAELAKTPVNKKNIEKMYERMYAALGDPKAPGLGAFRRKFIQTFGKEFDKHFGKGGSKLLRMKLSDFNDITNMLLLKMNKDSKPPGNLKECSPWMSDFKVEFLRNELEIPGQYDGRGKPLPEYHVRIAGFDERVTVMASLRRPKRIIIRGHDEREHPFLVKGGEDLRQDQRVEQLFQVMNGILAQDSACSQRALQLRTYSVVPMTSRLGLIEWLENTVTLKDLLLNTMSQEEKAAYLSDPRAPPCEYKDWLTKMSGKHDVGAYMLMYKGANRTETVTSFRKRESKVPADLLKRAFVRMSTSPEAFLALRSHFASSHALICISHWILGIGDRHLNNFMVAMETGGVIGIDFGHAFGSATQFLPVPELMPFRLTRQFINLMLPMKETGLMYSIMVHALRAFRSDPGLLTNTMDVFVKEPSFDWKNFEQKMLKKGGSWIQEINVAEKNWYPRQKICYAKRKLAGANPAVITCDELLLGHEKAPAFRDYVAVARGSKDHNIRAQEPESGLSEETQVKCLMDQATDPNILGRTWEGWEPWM

CS(=O)(=O)N1CCN(Cc2cc3nc(-c4cccc5[nH]ncc45)nc(N4CCOCC4)c3s2)CC1 [PICTILISIB]
pIC50 [1]: < 4.00

CC[C@H](Nc1ncnc2[nH]cnc12)c1nc2cccc(F)c2c(=O)n1-c1ccccc1 [IDELALISIB]
pIC50 [2]: < 6.00

CC(=O)Nc1nc(C)c(-c2ccc(Cl)c(S(=O)(=O)NCCO)c2)s1
pIC50 [1]: 4.80
pIC50 [3]: 7.19
pIC50 [2]: 6.85

Oc1cccc(-c2nc(N3CCOCC3)c3oc4ncccc4c3n2)c1 [PI-103]
pIC50 [1]: 6.00

COc1ccc2c(c1OC)N=C(NC(=O)c1cccnc1)N1CCN=C21
pIC50 [1]: 7.33
pIC50 [3]: 7.89
pIC50 [2]: 7.19

CC(=O)Nc1ccc2nc(-c3cccc(NS(=O)(=O)c4cccc5ccccc45)c3)nc(N3CCOCC3)c2c1
pIC50 [4]: < 4.00
pIC50 [5]: < 5.00
pIC50 [2]: 6.28

FC(F)c1nc2ccccc2n1-c1nc(N2CCOCC2)nc(N2CCOCC2)n1 [ZSTK-474]
pIC50 [1]: < 4.00
pIC50 [6]: 6.43
pIC50 [2]: 6.74

CC(=O)Nc1ccc2nc(-c3cccc(NS(=O)(=O)c4ccccc4)c3)nc(N3CCOCC3)c2c1
pIC50 [4]: < 4.00
pIC50 [5]: < 5.00
pIC50 [2]: 6.20

O=c1cc(N2CCOCC2)oc2c(-c3ccccc3)cccc12 [LY-294002]
pIC50 [1]: 4.57
pIC50 [6]: 5.41
pIC50 [2]: 4.98

O=C1NC(=S)S/C1=C/c1ccc2c(c1)N(Cc1ccc(F)c(Cl)c1)C(=O)CO2
pIC50 [1]: 6.85
pIC50 [3]: 5.82
pIC50 [2]: 6.43
